In brackets after ≈: the same amount, converted by molar mass.
Experiments:
[1] = tested on: Staphylococcus aureus; assay: Antibacterial activity against methicillin-sensitive Staphylococcus aureus ATCC 29213 by agar dilution method; type: functional
[2] = tested on: Staphylococcus aureus; assay: Antibacterial activity against methicillin-resistant Staphylococcus aureus 09-13 by agar dilution method; type: functional
[3] = tested on: Staphylococcus epidermidis; assay: Antibacterial activity against methicillin-sensitive Staphylococcus epidermidis ATCC 12228 by agar dilution method; type: functional
[4] = tested on: Staphylococcus epidermidis; assay: Antibacterial activity against methicillin-resistant Staphylococcus epidermidis 09-3 by agar dilution method; type: functional
[5] = tested on: Enterococcus faecalis; assay: Antibacterial activity against vancomycin-sensitive Enterococcus faecalis ATCC 29212 by agar dilution method; type: functional
[6] = tested on: Enterococcus faecalis; assay: Antibacterial activity against vancomycin-resistant Enterococcus faecalis 09-9 by agar dilution method; type: functional
[7] = tested on: Enterococcus faecium; assay: Antibacterial activity against vancomycin-resistant Enterococcus faecium ATCC 700221 by agar dilution method; type: functional
[8] = tested on: Escherichia coli; assay: Antibacterial activity against extended-spectrum beta-lactamase-negative Escherichia coli ATCC 25922 by agar dilution method; type: functional
[9] = tested on: Escherichia coli; assay: Antibacterial activity against extended-spectrum beta-lactamase-positive Escherichia coli 09-1 by agar dilution method; type: functional
[10] = tested on: Klebsiella pneumoniae; assay: Antibacterial activity against extended-spectrum beta-lactamase-negative Klebsiella pneumoniae 7 by agar dilution method; type: functional
[11] = tested on: Klebsiella pneumoniae; assay: Antibacterial activity against extended-spectrum beta-lactamase-positive Klebsiella pneumoniae 09-25 by agar dilution method; type: functional
[12] = tested on: Klebsiella pneumoniae; assay: Antibacterial activity against Klebsiella pneumoniae ATCC BAA-2146 expressing NDM-1 by agar dilution method; type: functional
[13] = Cytotoxicity against HEK293T cells after 48 hrs by MTS assay; type: cell-based, HEK-293T; conditions: human
[14] = tested on: Enterococcus faecium; assay: Antibacterial activity against vancomycin-sensitive Enterococcus faecium 09-10 by agar dilution method; type: functional
[15] = tested on: Staphylococcus aureus; assay: Antibacterial activity against methicillin-resistant Staphylococcus aureus ATCC 33591 by agar dilution method; type: functional
[16] = tested on: Staphylococcus aureus; assay: Antibacterial activity against methicillin-sensitive Staphylococcus aureus 15 by agar dilution method; type: functional
[17] = tested on: Staphylococcus aureus; assay: Antibacterial activity against methicillin-sensitive Staphylococcus aureus 09-6 by agar dilution method; type: functional
[18] = tested on: Staphylococcus epidermidis; assay: Antibacterial activity against methicillin-sensitive Staphylococcus epidermidis 09-9 by agar dilution method; type: functional
[19] = tested on: Enterococcus faecalis; assay: Antibacterial activity against vancomycin-resistant Enterococcus faecalis ATCC 51299 by agar dilution method; type: functional
[20] = tested on: Enterococcus faecalis; assay: Antibacterial activity against vancomycin-sensitive Enterococcus faecalis 09-8 by agar dilution method; type: functional
[21] = tested on: Enterococcus faecium; assay: Antibacterial activity against vancomycin-resistant Enterococcus faecium 05-8 by agar dilution method; type: functional
[22] = tested on: Escherichia coli; assay: Antibacterial activity against extended-spectrum beta-lactamase-negative Escherichia coli 1515 by agar dilution method; type: functional
[23] = tested on: Escherichia coli; assay: Antibacterial activity against extended-spectrum beta-lactamase-negative Escherichia coli 09-20 by agar dilution method; type: functional
[24] = tested on: Klebsiella pneumoniae; assay: Antibacterial activity against extended-spectrum beta-lactamase-positive Klebsiella pneumoniae ATCC 700603 by agar dilution method; type: functional
[25] = tested on: Klebsiella pneumoniae; assay: Antibacterial activity against extended-spectrum beta-lactamase-negative Klebsiella pneumoniae 09-8 by agar dilution method; type: functional
[26] = tested on: Pseudomonas aeruginosa; assay: Antibacterial activity against Pseudomonas aeruginosa ATCC 27853 by agar dilution method; type: functional
[27] = tested on: Pseudomonas aeruginosa; assay: Antibacterial activity against Pseudomonas aeruginosa PAO1 by agar dilution method; type: functional
[28] = tested on: Pseudomonas aeruginosa; assay: Antibacterial activity against Pseudomonas aeruginosa 09-14 by agar dilution method; type: functional
[29] = tested on: Acinetobacter calcoaceticus; assay: Antibacterial activity against Acinetobacter calcoaceticus ATCC 19606 by agar dilution method; type: functional
[30] = tested on: Enterobacter cloacae; assay: Antibacterial activity against Enterobacter cloacae 45301 by agar dilution method; type: functional
[31] = tested on: Klebsiella aerogenes; assay: Antibacterial activity against Enterobacter aerogenes 45102 by agar dilution method; type: functional
[32] = tested on: Serratia marcescens; assay: Antibacterial activity against Serratia marcescens 41002 by agar dilution method; type: functional
[33] = tested on: Morganella morganii; assay: Antibacterial activity against Morganella morganii ATCC 25830 by agar dilution method; type: functional
[34] = tested on: Providencia rettgeri; assay: Antibacterial activity against Providencia rettgeri ATCC 31052 by agar dilution method; type: functional
[35] = tested on: Proteus vulgaris; assay: Antibacterial activity against Proteus vulgaris ATCC 29905 by agar dilution method; type: functional
[36] = tested on: Proteus mirabilis; assay: Antibacterial activity against Proteus mirabilis 09-1 by agar dilution method; type: functional
[37] = tested on: Salmonella typhi; assay: Antibacterial activity against Salmonella typhi H901 by agar dilution method; type: functional, Salmonella enterica subsp. enterica serovar Typhi; conditions: Salmonella enterica
[38] = tested on: Citrobacter freundii; assay: Antibacterial activity against Citrobacter freundii ATCC 43864 by agar dilution method; type: functional

Question: Which results are given for CCNC(=N)c1ccc2cc(-c3ccc(Oc4ccc(-c5cc6ccc(C(=N)NCC)cc6[nH]5)cc4)cc3)[nH]c2c1?
Answer: MIC [1]: 2 µg/mL (≈ 3.7 µM); MIC [2]: 1 µg/mL (≈ 1.85 µM); MIC [3]: 1 µg/mL (≈ 1.85 µM); MIC [4]: 1 µg/mL (≈ 1.85 µM); MIC [5]: 2 µg/mL (≈ 3.7 µM); MIC [6]: 1 to 8 µg/mL (≈ 1.85 to 14.8 µM); MIC [7]: 2 µg/mL (≈ 3.7 µM); MIC [8]: 64 µg/mL (≈ 118 µM); MIC [9]: 64 µg/mL (≈ 118 µM); MIC [10]: 128 µg/mL (≈ 237 µM); MIC [11]: 64 µg/mL (≈ 118 µM); MIC [12]: 128 µg/mL (≈ 237 µM); CC50 at 48 h [13]: 36.3 µg/mL (≈ 67.1 µM); MIC [14]: 16 µg/mL (≈ 29.6 µM); MIC [15]: 1 µg/mL (≈ 1.85 µM); MIC [16]: 1 µg/mL (≈ 1.85 µM); MIC [17]: 2 µg/mL (≈ 3.7 µM); MIC [18]: 1 µg/mL (≈ 1.85 µM); MIC [19]: 2 µg/mL (≈ 3.7 µM); MIC [20]: 2 µg/mL (≈ 3.7 µM); MIC [21]: 4 µg/mL (≈ 7.4 µM); MIC [22]: 64 µg/mL (≈ 118 µM); MIC [23]: 64 µg/mL (≈ 118 µM); MIC [24]: 64 µg/mL (≈ 118 µM); MIC [25]: 64 µg/mL (≈ 118 µM); MIC [26]: 128 µg/mL (≈ 237 µM); MIC [27]: > 128 µg/mL; MIC [28]: 128 µg/mL (≈ 237 µM); MIC [29]: > 128 µg/mL; MIC [30]: 64 µg/mL (≈ 118 µM); MIC [31]: 64 µg/mL (≈ 118 µM); MIC [32]: 128 µg/mL (≈ 237 µM); MIC [33]: 128 µg/mL (≈ 237 µM); MIC [34]: 128 µg/mL (≈ 237 µM); MIC [35]: 128 µg/mL (≈ 237 µM); MIC [36]: 128 µg/mL (≈ 237 µM); MIC [37]: 64 µg/mL (≈ 118 µM); MIC [38]: 128 µg/mL (≈ 237 µM)

Question: What does the source list for CCC(C)NC(=N)c1ccc2cc(-c3ccc(Oc4ccc(-c5cc6ccc(C(=N)NC(C)CC)cc6[nH]5)cc4)cc3)[nH]c2c1 (centres undefined)?
Answer: MIC [1]: 2 µg/mL (≈ 3.35 µM); MIC [2]: 1 µg/mL (≈ 1.68 µM); MIC [3]: 0.5 µg/mL (≈ 0.838 µM); MIC [4]: 1 µg/mL (≈ 1.68 µM); MIC [5]: 2 µg/mL (≈ 3.35 µM); MIC [6]: 8 µg/mL (≈ 13.4 µM); MIC [7]: 1 µg/mL (≈ 1.68 µM); MIC [8]: 16 µg/mL (≈ 26.8 µM); MIC [9]: 32 µg/mL (≈ 53.6 µM); MIC [10]: 64 µg/mL (≈ 107 µM); MIC [11]: 32 µg/mL (≈ 53.6 µM); MIC [12]: 32 µg/mL (≈ 53.6 µM); CC50 at 48 h [13]: 40.4 µg/mL (≈ 67.7 µM); MIC [14]: 8 µg/mL (≈ 13.4 µM); MIC [15]: 2 µg/mL (≈ 3.35 µM); MIC [16]: 2 µg/mL (≈ 3.35 µM); MIC [17]: 2 µg/mL (≈ 3.35 µM); MIC [18]: 2 µg/mL (≈ 3.35 µM); MIC [19]: 2 µg/mL (≈ 3.35 µM); MIC [20]: 2 µg/mL (≈ 3.35 µM); MIC [21]: 2 µg/mL (≈ 3.35 µM); MIC [22]: 16 µg/mL (≈ 26.8 µM); MIC [23]: 32 µg/mL (≈ 53.6 µM); MIC [24]: 64 µg/mL (≈ 107 µM); MIC [25]: 16 µg/mL (≈ 26.8 µM); MIC [26]: 32 µg/mL (≈ 53.6 µM); MIC [27]: 64 µg/mL (≈ 107 µM); MIC [28]: 64 µg/mL (≈ 107 µM); MIC [29]: 64 µg/mL (≈ 107 µM); MIC [30]: 32 µg/mL (≈ 53.6 µM); MIC [31]: 32 µg/mL (≈ 53.6 µM); MIC [32]: 64 µg/mL (≈ 107 µM); MIC [33]: 16 µg/mL (≈ 26.8 µM); MIC [34]: 64 µg/mL (≈ 107 µM); MIC [35]: 32 µg/mL (≈ 53.6 µM); MIC [36]: 64 µg/mL (≈ 107 µM); MIC [37]: 16 µg/mL (≈ 26.8 µM); MIC [38]: 32 µg/mL (≈ 53.6 µM)

Question: Which results are given for CCC(CC)NC(=N)c1ccc2cc(-c3ccc(Oc4ccc(-c5cc6ccc(C(=N)NC(CC)CC)cc6[nH]5)cc4)cc3)[nH]c2c1?
Answer: MIC [1]: 2 µg/mL (≈ 3.2 µM); MIC [2]: 2 µg/mL (≈ 3.2 µM); MIC [3]: 0.5 µg/mL (≈ 0.8 µM); MIC [4]: 1 µg/mL (≈ 1.6 µM); MIC [5]: 4 µg/mL (≈ 6.4 µM); MIC [6]: 8 µg/mL (≈ 12.8 µM); MIC [7]: 2 µg/mL (≈ 3.2 µM); MIC [8]: 16 µg/mL (≈ 25.6 µM); MIC [9]: 16 µg/mL (≈ 25.6 µM); MIC [10]: 16 µg/mL (≈ 25.6 µM); MIC [11]: 16 µg/mL (≈ 25.6 µM); MIC [12]: 16 µg/mL (≈ 25.6 µM); CC50 at 48 h [13]: 25.4 µg/mL (≈ 40.7 µM); MIC [14]: 4 µg/mL (≈ 6.4 µM); MIC [15]: 2 µg/mL (≈ 3.2 µM); MIC [16]: 2 µg/mL (≈ 3.2 µM); MIC [17]: 2 µg/mL (≈ 3.2 µM); MIC [18]: 2 µg/mL (≈ 3.2 µM); MIC [19]: 4 µg/mL (≈ 6.4 µM); MIC [20]: 2 µg/mL (≈ 3.2 µM); MIC [21]: 4 µg/mL (≈ 6.4 µM); MIC [22]: 32 µg/mL (≈ 51.2 µM); MIC [23]: 16 µg/mL (≈ 25.6 µM); MIC [24]: 16 µg/mL (≈ 25.6 µM); MIC [25]: 16 µg/mL (≈ 25.6 µM); MIC [26]: 16 µg/mL (≈ 25.6 µM); MIC [27]: 32 µg/mL (≈ 51.2 µM); MIC [28]: 32 µg/mL (≈ 51.2 µM); MIC [29]: 16 µg/mL (≈ 25.6 µM); MIC [30]: 16 µg/mL (≈ 25.6 µM); MIC [31]: 16 µg/mL (≈ 25.6 µM); MIC [32]: 16 µg/mL (≈ 25.6 µM); MIC [33]: 8 µg/mL (≈ 12.8 µM); MIC [34]: 16 µg/mL (≈ 25.6 µM); MIC [35]: 16 µg/mL (≈ 25.6 µM); MIC [36]: 32 µg/mL (≈ 51.2 µM); MIC [37]: 16 µg/mL (≈ 25.6 µM); MIC [38]: 16 µg/mL (≈ 25.6 µM)

Reference: ChEMBL document CHEMBL4002623, “Synthesis and in vitro activity of dicationic indolyl diphenyl ethers as novel potent antibiotic agents against drug-resistant bacteria” (Bioorg Med Chem Lett, 2017)
